Molecules are shown by their SMILES.

Among the data in patent US20260317356A1, “SMALL MOLECULE MODULATORS OF OGG1” (AZKARRA THERAPEUTICS, INC., priority 2023, published 2026) are IC50 values, retold here.

In the test the target is hOGG1 (Homo sapiens, UniProt O15527). The experiment in a line: Biochemical fluorescence assay to measure enzymatic activity of hOGG1 (OGG1/APEX IC50). Further details: Protein His-hOGG1 (12-323) was prepared; His (N); host or cells: E. coli. The note with it: 1 nM OGG1+2 nM APEX+6 nM dsDNA (8-oxo-dG substrate); pH 7.5; RT 40 min; read-out: OGG1/APEX IC50. The procedure, abridged: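 His-hOGG1 (12-323, E. coli) at 1 nM with 2 nM hAPE1/APEX1, preincubated 20 min RT with compound. Then 6 nM 8-oxo-dG dsDNA substrate added, 40 min at RT in Tris pH 7.5, 100 mM KCl. TAMRA fluorescence (Ex520/Em600) converted to % inhibition vs controls; IC50 from 3-parameter fit of 10-point curve.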
Chain of hOGG1 (O15527 12-323): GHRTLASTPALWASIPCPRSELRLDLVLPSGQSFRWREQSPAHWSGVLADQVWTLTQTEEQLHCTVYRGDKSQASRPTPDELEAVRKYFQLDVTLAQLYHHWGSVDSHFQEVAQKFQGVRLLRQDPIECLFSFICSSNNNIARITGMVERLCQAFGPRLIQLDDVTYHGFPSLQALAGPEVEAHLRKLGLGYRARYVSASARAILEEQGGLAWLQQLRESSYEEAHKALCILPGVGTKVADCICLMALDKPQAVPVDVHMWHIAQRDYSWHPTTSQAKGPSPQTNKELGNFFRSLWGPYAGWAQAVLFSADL
As for `COc1cc(NC(=O)[C@H]2CC[C@@H](N3Cc4c(cccc4C(C)C)C3=O)CC2)ccc1C` [Example 158, (1s,4s)-4-(4-Isopropyl-1-oxoisoindolin-2-yl)-N-(3-methoxy-4-methylphenyl)cyclohexanecarboxamide], the IC50 is over 10 µM.
As for `COc1cc(NC(=O)[C@H]2CC[C@@H](N3Cc4c(OC)cccc4C3=O)CC2)ccc1C` [Example 161, (1s,4s)-4-(4-Methoxy-1-oxoisoindolin-2-yl)-N-(3-methoxy-4-methylphenyl)cyclohexanecarboxamide], the IC50 lay in the range of 1 to 10 µM.
With `COc1cc(NC(=O)[C@H]2CC[C@@H](N3Cc4c(C=O)cccc4C3=O)CC2)ccc1C` [Example 162, (1s,4s)-4-(4-Formyl-1-oxoisoindolin-2-yl)-N-(3-methoxy-4-methylphenyl)cyclohexanecarboxamide], the IC50 was 1 to 10 µM.
With `COc1cc(NC(=O)[C@H]2CC[C@@H](N3Cc4c(Br)cc([N+](=O)[O-])cc4C3=O)CC2)ccc1C` [Example 163, (1s,4s)-4-(4-Bromo-6-nitro-1-oxoisoindolin-2-yl)-N-(3-methoxy-4-methylphenyl)cyclohexanecarboxamide], the IC50 was 0.1 to 1 µM.
For `COc1cc(NC(=O)[C@H]2CC[C@@H](N3Cc4c(F)cccc4C3=O)CC2)ccc1C` [Example 164, (1s,4s)-4-(4-Fluoro-1-oxoisoindolin-2-yl)-N-(3-methoxy-4-methylphenyl)cyclohexanecarboxamide], the IC50 was 1 to 10 µM.
For the compound `COc1cc(NC(=O)[C@H]2CC[C@@H](N3Cc4c(Br)cc(N)cc4C3=O)CC2)ccc1C` [Example 165, (1s,4s)-4-(6-Amino-4-bromo-1-oxoisoindolin-2-yl)-N-(3-methoxy-4-methylphenyl)cyclohexanecarboxamide], the IC50 lay in the range of 0.1 to 1 µM.
Take `COc1cc(NC(=O)[C@H]2CC[C@@H](N3Cc4c(CF)cccc4C3=O)CC2)ccc1C` [Example 166, (1s,4s)-4-(4-(Fluoromethyl)-1-oxoisoindolin-2-yl)-N-(3-methoxy-4-methylphenyl)cyclohexanecarboxamide]: the IC50 lay within 1 to 10 µM.
In the case of `COc1cc(NC(=O)[C@H]2CC[C@@H](N3Cc4c(C)cc([N+](=O)[O-])cc4C3=O)CC2)ccc1C` [Example 167, (1s,4s)-N-(3-Methoxy-4-methylphenyl)-4-(4-methyl-6-nitro-1-oxoisoindolin-2-yl)cyclohexanecarboxamide], the IC50 was under 0.1 µM.
Under `COc1cc(NC(=O)[C@H]2CC[C@@H](N3Cc4c(Br)ccnc4C3=O)CC2)ccc1C` [Example 168, (1s,4s)-4-(4-Bromo-7-oxo-5H-pyrrolo[3,4-b]pyridin-6 (7H)-yl)-N-(3-methoxy-4-methylphenyl)cyclohexanecarboxamide] stands 0.1 to 1 µM; under `CCOC(=O)c1cccc2c1CN([C@H]1CC[C@@H](C(=O)Nc3ccc(C)c(OC)c3)CC1)C2=O` [Example 169, Ethyl 2-((1s,4s)-4-(3-methoxy-4-methylphenylcarbamoyl)cyclohexyl)-1-oxoisoindoline-4-carboxylate], over 10 µM; under `COc1cc(NC(=O)[C@H]2CC[C@@H](N3Cc4cc(Br)ccc4C3=O)CC2)ccc1C` [Example 170, (1s,4s)-4-(5-Bromo-1-oxoisoindolin-2-yl)-N-(3-methoxy-4-methylphenyl)cyclohexanecarboxamide], over 10 µM.
With `CCOC(=O)c1ccc2c(c1)CN([C@H]1CC[C@@H](C(=O)Nc3ccc(C)c(OC)c3)CC1)C2=O` [Example 171, Ethyl 2-((1s,4s)-4-(3-methoxy-4-methylphenylcarbamoyl)cyclohexyl)-1-oxoisoindoline-5-carboxylate], the IC50 is over 10 µM.
As to `COc1cc(NC(=O)[C@H]2CC[C@@H](N3Cc4c(cccc4C(F)F)C3=O)CC2)ccc1C` [Example 172, (1s,4s)-4-(4-(Difluoromethyl)-1-oxoisoindolin-2-yl)-N-(3-methoxy-4-methylphenyl)cyclohexanecarboxamide], the IC50 is 1 to 10 µM.
As for `COc1cc(NC(=O)[C@H]2CC[C@@H](N3Cc4c(Br)cc(NCC5CCCN5)cc4C3=O)CC2)ccc1C` (stereo partly drawn) [Example 173, (1s,4s)-4-(4-Bromo-1-oxo-6-(pyrrolidin-2-ylmethylamino)isoindolin-2-yl)-N-(3-methoxy-4-methylphenyl)cyclohexanecarboxamide], the IC50 was under 0.1 µM.
Take `COc1cc(NC(=O)[C@H]2CC[C@@H](N3Cc4c(Br)cc(NC5COC5)cc4C3=O)CC2)ccc1C` [Example 174, (1s,4s)-4-(4-Bromo-6-(oxetan-3-ylamino)-1-oxoisoindolin-2-yl)-N-(3-methoxy-4-methylphenyl)cyclohexanecarboxamide]: the IC50 is 0.1 to 1 µM.
In the case of `CNCCNc1cc(Br)c2c(c1)C(=O)N([C@H]1CC[C@@H](C(=O)Nc3ccc(C)c(OC)c3)CC1)C2` [Example 175, (1s,4s)-4-(4-Bromo-6-(2-(methylamino)ethylamino)-1-oxoisoindolin-2-yl)-N-(3-methoxy-4-methylphenyl)cyclohexanecarboxamide], the IC50 was under 0.1 µM.
In the case of `COc1cc(NC(=O)[C@H]2CC[C@@H](N3Cc4c(ccnc4Br)C3=O)CC2)ccc1C` [Example 176, (1s,4s)-4-(4-Bromo-1-oxo-1H-pyrrolo[3,4-c]pyridin-2(3H)-yl)-N-(3-methoxy-4-methylphenyl)cyclohexanecarboxamide], the IC50 was in the range of 0.1 to 1 µM.
Regarding `COc1cc(NC(=O)[C@H]2CC[C@@H](N3Cc4c(Br)cc(NCC5CNC5)cc4C3=O)CC2)ccc1C` [Example 177, (1s,4s)-4-(6-(Azetidin-3-ylmethylamino)-4-bromo-1-oxoisoindolin-2-yl)-N-(3-methoxy-4-methylphenyl)cyclohexanecarboxamide], the IC50 is under 0.1 µM.
For `COc1cc(NC(=O)[C@H]2CC[C@@H](N3Cc4c(Br)cc(NC(C)C(C)O)cc4C3=O)CC2)ccc1C` (stereo partly drawn) [Example 178, (1s,4s)-4-(4-Bromo-6-(3-hydroxybutan-2-ylamino)-1-oxoisoindolin-2-yl)-N-(3-methoxy-4-methylphenyl)cyclohexanecarboxamide], the IC50 fell in the range of 1 to 10 µM.
As for `COc1cc(NC(=O)[C@H]2CC[C@@H](N3Cc4c(Br)cc(NCC(C)O)cc4C3=O)CC2)ccc1C` (stereo partly drawn) [Example 179, (1s,4s)-4-(4-Bromo-6-(2-hydroxypropylamino)-1-oxoisoindolin-2-yl)-N-(3-methoxy-4-methylphenyl)cyclohexanecarboxamide], the figure is 0.1 to 1 µM; as for `COc1cc(NC(=O)[C@H]2CC[C@@H](N3Cc4c(Br)cc(NC5CNC5)cc4C3=O)CC2)ccc1C` [Example 180, (1s,4s)-4-(6-(Azetidin-3-ylamino)-4-bromo-1-oxoisoindolin-2-yl)-N-(3-methoxy-4-methylphenyl)cyclohexanecarboxamide], under 0.1 µM; as for `COc1cc(NC(=O)N2CCC(N3Cc4c(Br)cccc4C3=O)CC2)ccc1C` [Example 181, 4-(4-Bromo-1-oxoisoindolin-2-yl)-N-(3-methoxy-4-methylphenyl)piperidine-1-carboxamide], 1 to 10 µM.
Take `O=C(Nc1ccc(I)cc1)N1CCC(N2Cc3c(Br)cccc3C2=O)CC1` [Example 182, 4-(4-Bromo-1-oxoisoindolin-2-yl)-N-(4-iodophenyl) piperidine-1-carboxamide]: the IC50 was over 10 µM.
Turning to `COc1cc(NC(=O)[C@H]2CC[C@@H](N3Cc4c(Br)cncc4C3=O)CC2)ccc1C` [Example 183, (1s,4s)-4-(7-bromo-3-oxo-1H-pyrrolo[3,4-c]pyridin-2(3H)-yl)-N-(3-methoxy-4-methylphenyl)cyclohexanecarboxamide], the IC50 was in the range of 0.1 to 1 µM.
